This is an account of results in patent US4068074A, “Cephalosporin derivatives having at the 3-position of the cephem ring a heterocyclic thiomethyl group with a carboxy or sulfo group and at the 7-position of the cephem ring an α-heterocylic acylaminophenyl-acetamide group” (priority 1974, dated 1978).

In brackets after ≈: the same amount, converted by molar mass. Read-outs that look alike come from different tables or passages of the source. Bounds are passed on as bounds.

What all share (format): cell-based
The subject of one assay is Proteus vulgaris OXK US. As to the kind of experiment: MIC against bacteria (Table I), strain (1). The source says:
(§1) Now, for illustrating the excellent pharmacological effects of the compounds of this invention, the values of MIC (γ/ml.) of the compounds against various bacteria are shown in Table 1, in which the compounds of this invention used are shown by example numbers.
(1) Proteus vulgaris OXK US

The next assay relates to Proteus vulgaris 0X 19US. As to the kind of experiment: MIC against bacteria (Table I), strain (2). To be noted: 0X19US.
Text: as §1
(2) Proteus vulgaris 0X 19US

In assay [1] the test system is Proteus mirabilis IXM OM-19. As to the kind of experiment: MIC against bacteria (Table I), strain (3). The note with it: IXMOM19.
Text: as §1
(3) Proteus mirabilis IXM OM-19

The subject of assay [2] is Pseudomonas aeruginosa ATCC 8689. As to the kind of experiment: MIC against bacteria (Table I), strain (4). To be noted: ATCC8689; (4) Pseudomonas aeruginosa ATCC 8689; read-out: MIC.
Text: as §1
(4) Pseudomonas aeruginosa ATCC 8689

Assay [3] deals with Pseudomonas aeruginosa 99 (Gentamycin resistant). As to the kind of experiment: MIC against bacteria (Table I), strain (5). To be noted: (5) Pseudomonas aeruginosa 99 (Gentamycin resistant); read-out: MIC.
Text: as §1
(5) Pseudomonas aeruginosa 99 (Gentamycin resistant)

For assay [4], the system named is Psuedomonas ovalis IMA 1002. As to the kind of experiment: MIC against bacteria (Table I), strain (6). To be noted: (6) Psuedomonas ovalis IMA 1002; read-out: MIC.
Text: as §1
(6) Psuedomonas ovalis IMA 1002

In assay [5] the test system is Escherichia coli kauffmann 0-1. As to the kind of experiment: MIC against bacteria (Table I), strain (7). The note with it: Escherichia coli.
Text: as §1
(7) Escherichia coli kauffmann 0-1

The test system of assay [6] is Klebsiella pneumoniae ATCC 10031. As to the kind of experiment: MIC against bacteria (Table I), strain (8). The note with it: ATCC10031; (8) Klebsiella pneumoniae ATCC 10031; read-out: MIC.
Text: as §1
(8) Klebsiella pneumoniae ATCC 10031

Another assay has as its system Salmonella typhi H901 W. As to the kind of experiment: MIC against bacteria (Table I), strain (9). To be noted: Salmonella enterica, TYPHI.
Text: as §1
(9) Salmonella typhi H901 W

The subject of the next assay is Salmonella enteritidis. As to the kind of experiment: MIC against bacteria (Table I), strain (10). The note with it: Salmonella enterica, ENTERITIDIS
Text: as §1
(10) Salmonella enteritidis

In assay [7] the test system is Shigella flexneri 2a 1675. As to the kind of experiment: MIC against bacteria (Table I), strain (11). The note with it: 2A1675; (11) Shigella flexneri 2a 1675; read-out: MIC.
Text: as §1

Another assay has as its system Shigella sonnei II 37148. As to the kind of experiment: MIC against bacteria (Table I), strain (12). To be noted: II37148; (12) Shigella sonnei II 37148; read-out: MIC.
Text: as §1

The test system of assay [8] is Bacillus megatherium 10778. As to the kind of experiment: MIC against bacteria (Table I), strain (13).
Text: as §1

Assay [9] relates to Bacillus subtilis ATCC 6633. As to the kind of experiment: MIC against bacteria (Table I), strain (14). The note with it: ATCC6633.
Text: as §1
(14) Bacillus subtilis ATCC 6633

The subject of assay [10] is Micrococcus flavus ATCC 10240. As to the kind of experiment: MIC against bacteria (Table I), strain (15). To be noted: Micrococcus flavus, ATCC10240.
Text: as §1
(15) Micrococcus flavus ATCC 10240

In assay [11] the test system is Staphylococcus aureus 209P. As to the kind of experiment: MIC against bacteria (Table I), strain (16). The note with it: Staphylococcus aureus, 209P.
Text: as §1
(16) Staphylococcus aureus 209P

For assay [12], the system named is Staphylococcus Shimanishi. As to the kind of experiment: MIC against bacteria (Table I), strain (17).
Text: as §1
(17) Staphylococcus Shimanishi

Another assay has as its system Staphylococcus Onuma. As to the kind of experiment: MIC against bacteria (Table I), strain (18).
Text: as §1
(18) Staphylococcus Onuma

The mark [13] stands for this setting: (1) Proteus vulgaris OXK US, read-out: MIC.
Where [14] appears, read: (18) Staphylococcus Onuma, read-out: MIC.

Take `CC(Sc1nnc(SCC2=C(C(=O)O)N3C(=O)[C@@H](NC(=O)[C@H](NC(=O)c4cnccc4O)c4ccccc4)[C@H]3SC2)s1)C(=O)O` (stereo partly drawn) [Example 21, 7-[D-α-(4-hydroxynicotinoylamido)-α-phenylacetamido]-3-[5-(1-carboxyethylthio)-1,3,4-thiadiazol-2-yl]thiomethyl-Δ^3-cephem-4-carboxylic acid]: the MIC with Proteus vulgaris OXK US (setting [13]) is below 0.09 µg/mL; with Proteus vulgaris 0X 19US ((2) Proteus vulgaris 0X 19US, read-out: MIC) it was 0.19 µg/mL (≈ 0.276 µM); in assay [1] ((3) Proteus mirabilis IXM OM-19, read-out: MIC), 0.39 µg/mL (≈ 0.566 µM); in assay [2] it was 12.5 µg/mL (≈ 18.1 µM); in [3], 12.5 µg/mL (≈ 18.1 µM); in assay [4], 12.5 µg/mL (≈ 18.1 µM). For the same molecule, the MIC is 3.13 µg/mL (≈ 4.54 µM) in assay [5]; 6.25 µg/mL (≈ 9.07 µM) in assay [6]; 1.56 µg/mL (≈ 2.26 µM) in the assay on Salmonella typhi H901 W; 0.39 µg/mL (≈ 0.566 µM) against Salmonella enteritidis; 1.56 µg/mL (≈ 2.26 µM) in assay [7]; 3.13 µg/mL (≈ 4.54 µM) in the assay with Shigella sonnei II 37148. Further, the MIC in [8] ((13) Bacillus megatherium 10778, read-out: MIC) was 0.39 µg/mL (≈ 0.566 µM); in assay [9] ((14) Bacillus subtilis ATCC 6633, read-out: MIC) it was 0.39 µg/mL (≈ 0.566 µM); in assay [10] it was 3.13 µg/mL (≈ 4.54 µM); in [11] it was 1.56 µg/mL (≈ 2.26 µM); in assay [12] ((17) Staphylococcus Shimanishi, read-out: MIC), 6.25 µg/mL (≈ 9.07 µM); in the assay with Staphylococcus Onuma (setting [14]), 6.25 µg/mL (≈ 9.07 µM).
Regarding `O=C(O)Cc1nnc(SCC2=C(C(=O)O)N3C(=O)[C@@H](NC(=O)[C@H](NC(=O)c4csccc4=O)c4ccc(O)cc4)[C@H]3SC2)s1` [Example 32, 7-[D-α-(4-thiopyrone-3-carboxamido)-α-p-hydroxyphenylacetamido]-3-[5-carboxymethyl-1,3,4-thiadiazol-2-yl]thiomethyl-Δ^3-cephem-4-carboxylic acid], the MIC in the assay with Proteus vulgaris OXK US (setting [13]) is below 0.09 µg/mL; with Proteus vulgaris 0X 19US (Proteus vulgaris) it was 3.13 µg/mL (≈ 4.63 µM); in assay [1] (Proteus mirabilis) it was 0.78 µg/mL (≈ 1.15 µM); in [2] it was 50 µg/mL (≈ 74 µM); in assay [3] it was 25 µg/mL (≈ 37 µM); in assay [4] it was 50 µg/mL (≈ 74 µM). For the same molecule, the MIC in assay [5] worked out at 3.13 µg/mL (≈ 4.63 µM); in assay [6] it was 6.25 µg/mL (≈ 9.25 µM); against Salmonella typhi H901 W it was 1.56 µg/mL (≈ 2.31 µM); in the assay on Salmonella enteritidis, 1.56 µg/mL (≈ 2.31 µM); in [7] it was 0.78 µg/mL (≈ 1.15 µM); in the assay on Shigella sonnei II 37148, 3.13 µg/mL (≈ 4.63 µM). Also, the MIC came out at 0.78 µg/mL (≈ 1.15 µM) in [8] (Bacillus, 10778); 0.78 µg/mL (≈ 1.15 µM) in assay [9] (Bacillus subtilis); 3.13 µg/mL (≈ 4.63 µM) in assay [10]; 1.56 µg/mL (≈ 2.31 µM) in assay [11]; 3.13 µg/mL (≈ 4.63 µM) in assay [12] (Staphylococcus); 6.25 µg/mL (≈ 9.25 µM) in the assay on Staphylococcus Onuma (setting [14]).
For `CC1=C(C(=O)O)N2C(=O)[C@@H](NC(=O)[C@H](N)c3ccccc3)[C@H]2SC1` [Cephalexin, reference compound], the MIC is 30 µg/mL (≈ 86.4 µM) against Proteus vulgaris OXK US (Proteus vulgaris); 30 µg/mL (≈ 86.4 µM) in the assay with Proteus vulgaris 0X 19US (Proteus vulgaris); above 100 µg/mL in assay [2]; 10 µg/mL (≈ 28.8 µM) in [5]; 3 µg/mL (≈ 8.64 µM) in assay [6]; 6.25 µg/mL (≈ 18 µM) against Salmonella typhi H901 W. Moreover, the MIC in the assay with Salmonella enteritidis was 6.25 µg/mL (≈ 18 µM); in assay [7] it was 6.25 µg/mL (≈ 18 µM); in the assay with Shigella sonnei II 37148, 6.25 µg/mL (≈ 18 µM); in assay [8] (Bacillus, 10778), 0.78 µg/mL (≈ 2.25 µM); in assay [9] (Bacillus subtilis), 0.78 µg/mL (≈ 2.25 µM); in [10] it was 1.56 µg/mL (≈ 4.49 µM). Besides, the MIC in assay [11] is 1.56 µg/mL (≈ 4.49 µM); in [12] (Staphylococcus), 6.25 µg/mL (≈ 18 µM); against Staphylococcus Onuma (Staphylococcus), 12.5 µg/mL (≈ 36 µM).
